Earlier results in patent publication US10696827B2, “Polyolefin composition comprising an antimicrobial additive” (SABIC GLOBAL TECHNOLOGIES B.V., priority 2015, dated 2020).

Tested on: Staphylococcus aureus
Conditions: >0.4% of additive in LDPE catheter, rabbits, subcutaneous

In the case of `CCCCCCc1ccc(O)cc1O` [4-n-hexyl resorcinol], the infection is listed as “little to no infection”.
